The target of test [1] is T1, FXR (Homo sapiens, UniProt Q96RI1).
T1 construct: expressed in transfected cells; host or cells: CV-1 cells
T1 sequence (Q96RI1 1-486): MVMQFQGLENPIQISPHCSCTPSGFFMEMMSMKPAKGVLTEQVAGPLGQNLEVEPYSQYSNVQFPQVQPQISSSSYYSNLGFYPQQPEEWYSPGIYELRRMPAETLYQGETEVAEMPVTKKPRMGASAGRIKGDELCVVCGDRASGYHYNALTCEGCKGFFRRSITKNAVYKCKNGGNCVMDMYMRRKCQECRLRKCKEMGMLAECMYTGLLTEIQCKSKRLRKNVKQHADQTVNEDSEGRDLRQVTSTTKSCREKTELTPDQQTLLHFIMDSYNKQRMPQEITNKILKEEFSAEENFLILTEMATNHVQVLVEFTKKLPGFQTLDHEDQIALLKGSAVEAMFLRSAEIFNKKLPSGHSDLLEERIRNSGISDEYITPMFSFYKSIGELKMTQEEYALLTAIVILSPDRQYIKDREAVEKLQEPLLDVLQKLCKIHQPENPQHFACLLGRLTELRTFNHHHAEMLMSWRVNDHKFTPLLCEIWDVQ
T1 sequence (P19793 1-462 partner): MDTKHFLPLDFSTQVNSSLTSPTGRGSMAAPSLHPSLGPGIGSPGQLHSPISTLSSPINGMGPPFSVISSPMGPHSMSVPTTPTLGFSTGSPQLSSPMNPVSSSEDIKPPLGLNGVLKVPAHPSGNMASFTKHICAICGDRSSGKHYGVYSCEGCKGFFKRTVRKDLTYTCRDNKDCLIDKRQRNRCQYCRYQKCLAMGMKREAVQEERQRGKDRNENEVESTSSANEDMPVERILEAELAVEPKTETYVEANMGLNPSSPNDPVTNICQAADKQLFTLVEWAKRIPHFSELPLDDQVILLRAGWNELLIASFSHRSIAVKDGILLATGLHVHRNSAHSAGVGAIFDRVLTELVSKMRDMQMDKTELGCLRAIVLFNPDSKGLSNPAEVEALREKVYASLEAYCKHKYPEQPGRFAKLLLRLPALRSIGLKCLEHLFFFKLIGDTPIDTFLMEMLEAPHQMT
The test can be described thus: In Vitro FXR Assay (TK): TK-ECRE-luc reporter in transfected CV-1 cells. It counts as cell-based. To be noted: CV-1 cells transfected with hFXR, hRXR, 18 h incubation, luminescence. The essentials:
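CV-1 cells in charcoal-stripped FBS medium were transiently cotransfected with hFXR, hRXR, TK-ECRE-luc and pCMX-YFP plasmids. After 18 h, compounds serially diluted in DMSO were added for 18 h at 37 °C, 5% CO2, then cells were lysed and luminescence read.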

Test [2] concerns the target T1, FXR. As to the kind of experiment: In Vitro FXR Assay (PGL3): luciferase reporter in transfected CV-1 cells. The format is cell-based. To be noted: CV-1 cells transfected with hFXR, hRXR, PGL3-ECRE*6-luc; 18 h incubation; luminescence. In a few lines:
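CV-1 cells in charcoal-stripped FBS were transiently co-transfected with full-length human FXR, RXR, an ECRE×6-luciferase reporter, β-gal and YFP plasmids. Transfected cells were reseeded onto half-log compound dilutions and incubated 18 h. Luciferase luminescence was read after lysis, and EC50 was determined.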
On the technique in general: In a reporter assay the amount or activity of a reporter protein is the signal.

As to `COC(=O)CC(C)c1cccc(N(Cc2ccc(-c3ccc(N(C)C)cc3)cc2)C(=O)C2CCCCC2)c1` (stereo not shown) [compound 94, Methyl 3-(3-(N-((4′-(dimethylamino)-[1,1′-biphenyl]-4-yl)methyl)cyclohexanecarboxamido)phenyl) butanoate], the EC50 (usually the concentration that produces a half-maximal response) at FXR [1] was 1 to 10 µM. Further, the “Cmpd/Fex (ratio of the EC50 for the test compound relative to the EC50 of the Fexaramine control)” value on FXR [2] is listed as “++ (‘++’ means Cmpd/Fex > 10 & < 100)”.

As to `COC(=O)C(C)Cc1cccc(N(Cc2ccc(-c3ccc(N(C)C)cc3)cc2)C(=O)C2CCCCC2)c1` (stereo not shown) [compound 95, Methyl 3-(3-(N-((4′-(dimethylamino)-[1,1′-biphenyl]-4-yl)methyl)cyclohexanecarboxamido)phenyl)-2-methylpropanoate], the concentration for a half-maximal effect (EC50) on FXR [1] is 1 to 10 µM. Besides, the “Cmpd/Fex (ratio of the EC50 for the test compound relative to the EC50 of the Fexaramine control)” value on FXR [2] was “++ (‘++’ means Cmpd/Fex > 10 & < 100)”.

The values above are taken from US10626081B2, “Farnesoid X receptor agonists and uses thereof” (Metacrine, Inc., priority 2015, dated 2020).
